For this series, the system named is human PKK mRNA. The series can be described thus: Antisense inhibition of human PKK mRNA in HepaRG cells, 1,000 nM, MOE/deoxy/cEt oligonucleotides (Example 3). It is filed as cell-based. The procedure, abridged: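 Readout is percent PKK mRNA reduction against untreated controls, by real-time PCR (RTS3454) adjusted for total RNA via RIBOGREEN. Oligonucleotides, phosphorothioate gapmers of 16 nucleosides with cEt, MOE and deoxy sugars, were delivered at 1,000 nM by electroporation to 20,000 HepaRG cells/well for roughly 24 h.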

Setting [1] is: HepaRG cells, 1,000 nM antisense oligonucleotide, Table 29.
Where [2] appears, read: Table 21 experiment, HepaRG cells, electroporation with 1,000 nM antisense oligonucleotide, approx. 24 hours, PKK mRNA by RT-PCR (RTS3454), relative to untreated control cells.
[3] abbreviates: Table 27, HepaRG cells, 1,000 nM antisense oligonucleotide, human PKK mRNA.
[4] abbreviates: HepaRG cells, electroporation with 1,000 nM antisense oligonucleotide, approx. 24 hours, PKK mRNA by RT-PCR (RTS3454), relative to untreated control cells, Table 25 experiment.
Where [5] appears, read: HepaRG cells, electroporation with 1,000 nM antisense oligonucleotide, approximately 24 hours, primer probe set RTS3454, relative to untreated control cells, experiment of Table 24.
The mark [6] stands for this setting: Table 19, HepaRG cells, electroporation with 1,000 nM antisense oligonucleotide, approximately 24 hours, PKK mRNA by RT-PCR (RTS3454), relative to untreated control cells.
[7] abbreviates: Table 28, HepaRG cells, 1,000 nM antisense oligonucleotide, human PKK mRNA.
Where [8] appears, read: HepaRG cells, electroporation with 1,000 nM antisense oligonucleotide, approx. 24 hours, PKK mRNA by RT-PCR (RTS3454), relative to untreated control cells, Table 26 experiment.
Where [9] appears, read: Table 30, human PKK mRNA, HepaRG cells, 1,000 nM antisense oligonucleotide.
[10] abbreviates: Table 20, HepaRG cells, electroporation with 1,000 nM antisense oligonucleotide, approximately 24 hours, PKK mRNA by RT-PCR (RTS3454), relative to untreated control cells.
Setting [11] is: Table 22 experiment, HepaRG cells, electroporation with 1,000 nM antisense oligonucleotide, approx. 24 hours, PKK mRNA by RT-PCR (RTS3454), relative to untreated control cells.
The mark [12] stands for this setting: PKK mRNA, HepaRG cells, 1,000 nM antisense oligonucleotide, Table 31.

Strand notation (5' to 3'): a small letter for the sugar, then the base; units joined by * are phosphorothioate-linked, units joined directly phosphodiester-linked; [ ] holds rarer units or linkages, { } end groups; capitals alone tell only the bases. e = 2'-O-(2-methoxyethyl) (MOE); k = constrained ethyl (cEt); [5mC] = 5-methylcytosine; d = 2'-deoxy (DNA)

As a reminder, the % inhibition is the change of the read-out against control, counted positive when it falls. Higher therefore signals a response far below the control. For the substance “548556 (antisense eA*eT*kG*d[5mC]*dA*dT*dG*d[5mC]*d[5mC]*dT*dA*d[5mC]*d[5mC]*k[5mC]*kA*eA) [compound 548556]”, the “% inhibition” value under setting [1] was 43%. On the same count and under the same terms, for “548609 (antisense eG*eA*kT*d[5mC]*dG*dG*dT*dG*dG*dT*dG*dG*dG*kA*kT*eT) [compound 548609]” the value was 30%. Consider “547814 (eG*eG*kG*dT*dG*dG*dA*dA*dT*dG*dT*dG*d[5mC]*kA*k[5mC]*e[5mC]; antisense) [compound 547814]”, for which, under setting [2], the “% inhibition” value is given as 60%. For the substance “548370 (eA*e[5mC]*kG*dA*dA*dG*dT*d[5mC]*dT*d[5mC]*dT*dT*dT*k[5mC]*k[5mC]*eT; antisense) [compound 548370]”, the “% inhibition” value under setting [3] is given as 53%.

In the case of “548161 (e[5mC]*eT*k[5mC]*dG*d[5mC]*dA*dT*dT*dG*dT*d[5mC]*dA*dG*k[5mC]*k[5mC]*e[5mC]; antisense) [compound 548161]”, the “% inhibition” value under setting [4] amounted to 59%. Still for that read-out and setting: the result for “548221 (eA*e[5mC]*kT*d[5mC]*d[5mC]*dA*dG*d[5mC]*dA*dG*dA*dA*dA*kT*k[5mC]*e[5mC]; antisense) [compound 548221]” reads 49%.

In the case of “548001 (antisense eA*e[5mC]*k[5mC]*dA*dG*dA*dG*d[5mC]*dT*d[5mC]*d[5mC]*d[5mC]*dT*kT*kG*eT) [compound 548001]”, under setting [5], the “% inhibition” value is recorded as 64%. “548136 (eG*eG*k[5mC]*dT*d[5mC]*dA*dG*dA*dA*dT*dT*dT*dG*kA*k[5mC]*eT; antisense) [compound 548136]”: the “% inhibition” value under setting [6] came to 39%. “548501 (antisense e[5mC]*eA*kA*dG*d[5mC]*d[5mC]*dA*d[5mC]*dT*dA*dA*d[5mC]*d[5mC]*k[5mC]*kA*e[5mC]) [compound 548501]”: under setting [7], the “% inhibition” value is 33%. As for “548184 (eA*e[5mC]*kA*dG*dT*d[5mC]*dA*dT*dG*dG*dA*dG*dA*kT*k[5mC]*eT; antisense) [compound 548184]”, the “% inhibition” value under setting [4] came out at 73%. In the case of “548493 (antisense e[5mC]*e[5mC]*kA*d[5mC]*d[5mC]*dG*d[5mC]*dT*dG*d[5mC]*d[5mC]*d[5mC]*dG*k[5mC]*k[5mC]*eA) [compound 548493]”, the “% inhibition” value under setting [7] is recorded as 37%. For the substance “548113 (antisense eG*eG*kT*dG*dA*d[5mC]*dT*dG*d[5mC]*dA*dT*d[5mC]*dT*kG*kA*eG) [compound 548113]”, the “% inhibition” value under setting [6] was determined as 56%. As for “548254 (antisense e[5mC]*e[5mC]*k[5mC]*dA*dT*dG*d[5mC]*dA*dT*dA*d[5mC]*dT*d[5mC]*kG*k[5mC]*e[5mC]) [compound 548254]”, under setting [8], the “% inhibition” value turned out to be 39%. For the substance “548406 (eT*e[5mC]*kT*dA*dG*dA*dG*dG*d[5mC]*d[5mC]*dG*d[5mC]*d[5mC]*kT*kG*e[5mC]; antisense) [compound 548406]”, the “% inhibition” value under setting [9] was 0%. As to “547885 (e[5mC]*eT*k[5mC]*dT*dG*d[5mC]*d[5mC]*dT*dT*dG*dT*dG*dA*kA*kA*eT; antisense) [compound 547885]”, the “% inhibition” value runs as follows: under setting [10], 45%; under setting [11], 57%.

For “547904 (eA*e[5mC]*kT*d[5mC]*dA*dG*d[5mC]*dA*d[5mC]*d[5mC]*dT*dT*dT*kA*kT*eA; antisense) [compound 547904]”, the “% inhibition” value came out at 56% under setting [10] and 41% under setting [11]. With “548368 (eG*eT*kG*dT*dT*d[5mC]*dA*dT*dA*d[5mC]*dG*dG*dA*kA*kG*e[5mC]; antisense) [compound 548368]”, the “% inhibition” value under setting [3] is listed as 59%. Take “548209 (e[5mC]*eA*kA*dT*d[5mC]*dT*d[5mC]*dT*dG*dG*dT*d[5mC]*dA*kA*kT*e[5mC]; antisense) [compound 548209]”: under setting [4], the “% inhibition” value worked out at 57%. Take “547876 (antisense eA*e[5mC]*kA*d[5mC]*dT*dG*d[5mC]*dT*dA*dA*d[5mC]*d[5mC]*dT*kT*kA*eG) [compound 547876]”: the “% inhibition” value is, setting by setting: under setting [10], 78%; under setting [11], 59%. With “548473 (e[5mC]*e[5mC]*kA*dA*d[5mC]*d[5mC]*dT*dT*d[5mC]*d[5mC]*d[5mC]*dA*dA*kT*k[5mC]*eT; antisense) [compound 548473]”, under setting [7], the “% inhibition” value is listed as 0%. As for “548630 (antisense eT*eG*kG*dT*d[5mC]*d[5mC]*d[5mC]*dA*dA*dA*dT*dT*dG*kG*kA*eG) [compound 548630]”, the “% inhibition” value under setting [12] is reported as 33%. As to “547845 (antisense e[5mC]*eG*kA*dT*dG*dG*d[5mC]*dA*dA*dG*d[5mC]*dA*d[5mC]*kT*kT*eA) [compound 547845]”, the “% inhibition” value is, setting by setting: under setting [10], 0%; under setting [11], 64%. For “548253 (antisense eT*eA*k[5mC]*dT*d[5mC]*dG*d[5mC]*d[5mC]*dT*dT*dT*dG*dT*kG*kA*eT) [compound 548253]”, the “% inhibition” value under setting [8] is on record as 8%.

For “548626 (antisense eG*e[5mC]*kA*dG*dT*dA*dT*dG*dT*dT*d[5mC]*dA*dA*kT*k[5mC]*e[5mC]) [compound 548626]”, under setting [12], the “% inhibition” value worked out at 36%. Regarding “548285 (antisense eG*e[5mC]*kT*dT*dA*d[5mC]*dT*dT*dA*d[5mC]*dA*dT*d[5mC]*k[5mC]*k[5mC]*eT) [compound 548285]”, the “% inhibition” value under setting [8] turned out to be 52%. In the case of “548039 (eG*eA*kA*dA*dG*dG*dT*dG*dT*dA*dT*d[5mC]*dT*kT*kT*eT; antisense) [compound 548039]”, under setting [5], the “% inhibition” value is on record as 29%. Turning to “548101 (antisense eT*eA*k[5mC]*dT*d[5mC]*dA*dG*d[5mC]*dG*dA*d[5mC]*dT*dT*kT*kG*eG) [compound 548101]”, the “% inhibition” value under setting [6] stood at 47%. As to “548688 (DNA eT*eA*kG*dA*dG*dG*dG*dA*dT*d[5mC]*d[5mC]*d[5mC]*dA*kG*kG*eA) [compound 548688]”, the “% inhibition” value under setting [12] was 0%. In the case of “548658 (antisense eG*eA*kA*dG*dT*dT*d[5mC]*d[5mC]*dT*dG*dT*dG*dT*k[5mC]*kT*eT) [compound 548658]”, the “% inhibition” value under setting [12] turned out to be 11%. As to “548329 (antisense eA*eG*k[5mC]*dA*dG*dA*dT*d[5mC]*dT*dG*dG*dG*dT*kT*kG*eT) [compound 548329]”, under setting [3], the “% inhibition” value came to 59%. Regarding “548092 (antisense eT*eT*kG*d[5mC]*dA*dA*dA*d[5mC]*dT*dA*dA*dG*dG*kG*kA*e[5mC]) [compound 548092]”, the “% inhibition” value under setting [6] is reported as 30%. Regarding “548503 (antisense e[5mC]*e[5mC]*kA*dT*d[5mC]*dT*dA*d[5mC]*dT*d[5mC]*d[5mC]*d[5mC]*d[5mC]*k[5mC]*kA*eT) [compound 548503]”, under setting [7], the “% inhibition” value is 9%. “548363 (antisense e[5mC]*eA*kG*d[5mC]*dA*dG*dG*d[5mC]*dT*d[5mC]*dA*dA*dA*kG*kT*eG) [compound 548363]”: the “% inhibition” value under setting [3] is 37%. On to “548468 (e[5mC]*eA*kA*d[5mC]*dA*dT*d[5mC]*dA*d[5mC]*dT*dG*dT*dA*k[5mC]*k[5mC]*eT; antisense) [compound 548468]”, for which the “% inhibition” value under setting [7] is reported as 6%.

In the case of “548404 (eG*eA*kG*d[5mC]*d[5mC]*dT*dT*d[5mC]*d[5mC]*dG*d[5mC]*d[5mC]*dT*k[5mC]*kT*e[5mC]; antisense) [compound 548404]”, under setting [9], the “% inhibition” value stood at 37%.

In the case of “548339 (antisense eA*e[5mC]*kA*dT*dG*dT*dG*dG*dG*dA*dT*d[5mC]*dA*kG*kA*eG) [compound 548339]”, under setting [3], the “% inhibition” value was determined as 37%. Same read-out and setting: the result for “548308 (eA*eA*kT*dG*dG*d[5mC]*dA*dG*dG*dT*d[5mC]*d[5mC]*dT*kG*kG*e[5mC]; antisense) [compound 548308]” reads 9%. Take “548647 (antisense e[5mC]*eA*k[5mC]*dG*dG*d[5mC]*dA*dA*dG*dT*d[5mC]*dG*d[5mC]*kG*kG*eG) [compound 548647]”: the “% inhibition” value under setting [12] turned out to be 39%. As to “547980 (antisense eA*eA*kG*dT*d[5mC]*dT*d[5mC]*dT*dT*dG*dG*d[5mC]*dA*kA*kA*e[5mC]) [compound 547980]”, under “HepaRG cells, electroporation with 1,000 nM antisense oligonucleotide, approximately 24 hours, primer probe set RTS3454, relative to untreated control cells, experiment of Table 23”, the “% inhibition” value turned out to be 54%. For the substance “548537 (antisense e[5mC]*e[5mC]*kT*d[5mC]*dA*dA*dT*d[5mC]*d[5mC]*d[5mC]*dA*dA*d[5mC]*k[5mC]*k[5mC]*eA) [compound 548537]”, the “% inhibition” value under setting [1] is given as 0%. On to “548656 (antisense eT*eT*kA*d[5mC]*dA*dA*d[5mC]*dA*dG*dA*d[5mC]*d[5mC]*d[5mC]*kA*kG*eG) [compound 548656]”, for which the “% inhibition” value under setting [12] was found to be 35%. As for “547830 (eG*e[5mC]*kA*d[5mC]*d[5mC]*dT*dG*dT*dT*d[5mC]*dG*dA*dT*kG*kT*eA; antisense) [compound 547830]”, the “% inhibition” value under setting [2] came to 74%.

On to “548509 (antisense eT*eG*k[5mC]*dA*dG*dG*dG*d[5mC]*dT*dG*d[5mC]*dG*d[5mC]*kA*kG*eT) [compound 548509]”, for which the “% inhibition” value under setting [7] stood at 41%.

The values above are taken from patent US11840686B2, “Modulation of prekallikrein (PKK) expression” (Ionis Pharmaceuticals, Inc., priority 2013, dated 2023).
